Reference: paper PMC3666173 (Basic research in cardiology, 2012)
No end group written: not given here.

Experiments:
[1] = molecular target: Cx43 hemichannels (C6-Cx43 cells) (Homo sapiens, UniProt P17302); assay: [Ca2+]i-triggered; format: cell-based
[2] = system: pannexin-1 (Panx1) hemichannels (C6-Panx1 cells); assay: High [K+]e-triggered ATP release in C6-Panx1 cells; format: cell-based; conditions: [K+]e = 143 mM, carbenoxolone 10 μM, 30 min, 10Panx1 200 μM
[3] = system: C6-Cx43 cells; conditions: A23187 2.2 μM, 5 min; ref [19], [49]; cited from earlier work

Sequence of Cx43 hemichannels (C6-Cx43 cells) (P17302 whole entry): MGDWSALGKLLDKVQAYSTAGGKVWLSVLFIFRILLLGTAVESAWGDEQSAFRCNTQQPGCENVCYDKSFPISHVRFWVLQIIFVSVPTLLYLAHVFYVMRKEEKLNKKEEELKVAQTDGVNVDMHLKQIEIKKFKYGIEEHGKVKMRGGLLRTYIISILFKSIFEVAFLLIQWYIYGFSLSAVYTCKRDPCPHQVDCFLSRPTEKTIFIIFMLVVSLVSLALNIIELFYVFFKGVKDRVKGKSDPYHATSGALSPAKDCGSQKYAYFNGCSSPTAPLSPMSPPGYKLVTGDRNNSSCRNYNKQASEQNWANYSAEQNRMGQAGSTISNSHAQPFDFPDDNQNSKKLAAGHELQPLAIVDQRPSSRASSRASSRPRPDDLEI

YGRKKRRQRRRKQIEIKKFK
IC50 [1]: ~7 µM

CC1(C)[C@@H](OC(=O)CCC(=O)O)CC[C@]2(C)[C@H]3C(=O)C=C4[C@@H]5C[C@@](C)(C(=O)O)CC[C@]5(C)CC[C@@]4(C)[C@]3(C)CC[C@@H]12 [carbenoxolone]
high [K+]e-triggered ATP release ([2]; n = 12): suppressed | high [K+]e-triggered ATP release ([2]; n = 12, listed as Cbx): blocked

CNc1ccc2oc(C[C@H]3O[C@@]4(CC[C@H]3C)O[C@H]([C@H](C)C(=O)c3ccc[nH]3)[C@H](C)C[C@H]4C)nc2c1C(=O)O [A23187]
[Ca2+]i-triggered ATP release ([1]; Ca2+ ionophore, 2.2 μM, 5 min, C6-Cx43 vs C6-pLTR, n = 12): triggered significant ATP release in C6-Cx43 but not in C6 cells stably transfected with the empty vector | transient elevation of [Ca2+]i [3]: ~ 500 nM
